14 compounds from the NIST ThermoML archive (doi:10.1016/j.jct.2018.02.010) can be followed below.

For data set [1] the following is noted: 101.3 kPa, Liquid mixture 1, spinning drop method.
For data set [2] the following is noted: 298.15 K; for surface tension liquid-gas: Maximal bubble pressure; for mass density: 101.33 kPa, Liquid, Vibrating tube method.
The nature of data set [3]: refractive index (Na D-line) (dimensionless). The note with it: 298.15 K; 101.33 kPa; Liquid; refractometer model RFM 81.

Numbers after ± are expanded uncertainties.

With `CCC(=O)OC` [methyl propanoate] + O, the interfacial tension worked out at 7.02 ± 0.03 mN/m in data set [1] (278.15 K); 7.55 ± 0.03 mN/m in data set [1] (288.15 K); 7.69 ± 0.03 mN/m in data set [1] (298.15 K); 7.56 ± 0.03 mN/m in data set [1] (308.15 K); 7.34 ± 0.03 mN/m in data set [1] (318.15 K); 6.63 ± 0.03 mN/m in data set [1] (328.15 K). Moreover, the interfacial tension in data set [1] (338.15 K) is listed as 5.06 ± 0.03 mN/m.
As a reminder, the surface tension liquid-gas is the work needed to enlarge the surface of a liquid by unit area. The mass density is the mass of a sample divided by its volume. Usually refractive index stands for a measure of how strongly the sample bends light. As for `CCC(=O)OC` [methyl propanoate], in data set [2], the surface tension liquid-gas is listed as 24.61 ± 0.25 mN/m and the mass density amounted to 909.3 ± 0.72 kg/m3. For the same compound, the refractive index in data set [3] stood at 1.37572 ± 0.0008.
For the compound `CCCC(=O)OC` [methyl butanoate] + O, the interfacial tension in data set [1] (278.15 K) is on record as 10.6 ± 0.03 mN/m; in data set [1] (288.15 K) it was 10.9 ± 0.03 mN/m; in data set [1] (298.15 K) it was 11.1 ± 0.03 mN/m; in data set [1] (308.15 K) it was 11.1 ± 0.03 mN/m; in data set [1] (318.15 K), 11 ± 0.03 mN/m; in data set [1] (328.15 K), 10.6 ± 0.03 mN/m. The interfacial tension amounted to 10.05 ± 0.03 mN/m in data set [1] (338.15 K) and 9.4 ± 0.03 mN/m in data set [1] (348.15 K).
`CCCCCCC(=O)OC` [methyl heptanoate]: in data set [2], the surface tension liquid-gas was determined as 26.73 ± 0.26 mN/m and the mass density is 875.61 ± 0.72 kg/m3. In addition, the refractive index in data set [3] is given as 1.41086 ± 0.0008.
For `CCCCC(=O)OC` [methyl pentanoate] the same measures were 25.34 ± 0.25 mN/m, 885.66 ± 0.72 kg/m3 and 1.39628 ± 0.0008.
For `COC(C)=O` [methyl ethanoate], in data set [2], the surface tension liquid-gas worked out at 24.93 ± 0.25 mN/m and the mass density amounted to 926.9 ± 0.72 kg/m3. Also, in data set [3], the refractive index came to 1.36008 ± 0.0008.
As for `COC=O` [methyl methanoate], in data set [2], the surface tension liquid-gas is listed as 24.96 ± 0.25 mN/m and the mass density is on record as 960.85 ± 0.3 kg/m3. Further, the refractive index in data set [3] is given as 1.34174 ± 0.0008.
For `CCCCCCC(=O)OC` [methyl heptanoate] + O, the interfacial tension in data set [1] (288.15 K) is 16 ± 0.03 mN/m; in data set [1] (298.15 K) it was 16.7 ± 0.03 mN/m; in data set [1] (308.15 K), 17.3 ± 0.04 mN/m; in data set [1] (318.15 K), 17.5 ± 0.04 mN/m; in data set [1] (328.15 K), 17.6 ± 0.04 mN/m; in data set [1] (338.15 K), 17.5 ± 0.04 mN/m. For the same compound, the interfacial tension was 16.9 ± 0.03 mN/m in data set [1] (348.15 K) and 15.9 ± 0.03 mN/m in data set [1] (358.15 K).
On to `CCCCCC(=O)OC` [methyl hexanoate] + O, for which the interfacial tension stood at 14.6 ± 0.03 mN/m in data set [1] (278.15 K); 15 ± 0.03 mN/m in data set [1] (288.15 K); 15.5 ± 0.03 mN/m in data set [1] (298.15 K); 15.7 ± 0.03 mN/m in data set [1] (308.15 K); 15.8 ± 0.03 mN/m in data set [1] (318.15 K); 15.7 ± 0.03 mN/m in data set [1] (328.15 K). In addition, the figures for the interfacial tension in data set [1] (338.15 K), in data set [1] (348.15 K) and in data set [1] (358.15 K) were 15.5 ± 0.03 mN/m, 15.1 ± 0.03 mN/m and 14.6 ± 0.03 mN/m, respectively.
As for `CCCC(=O)OC` [methyl butanoate], in data set [2], the surface tension liquid-gas came out at 24.56 ± 0.25 mN/m and the mass density stood at 892.62 ± 0.72 kg/m3. Besides, in data set [3], the refractive index is listed as 1.38486 ± 0.0008.
Regarding `COC=O` [methyl methanoate] + O, the interfacial tension in data set [1] (278.15 K) is reported as 0.56 ± 0.03 mN/m; in data set [1] (288.15 K), 0.77 ± 0.03 mN/m.
For the compound `CCCCC(=O)OC` [methyl pentanoate] + O, the interfacial tension in data set [1] (278.15 K) was 13.6 ± 0.03 mN/m; in data set [1] (288.15 K), 14 ± 0.03 mN/m; in data set [1] (298.15 K), 14.1 ± 0.03 mN/m; in data set [1] (308.15 K), 14 ± 0.03 mN/m; in data set [1] (318.15 K), 13.9 ± 0.03 mN/m; in data set [1] (328.15 K), 13.7 ± 0.03 mN/m. Besides, the results for the interfacial tension in data set [1] (338.15 K), in data set [1] (348.15 K) and in data set [1] (358.15 K) were 13.5 ± 0.03 mN/m, 13.2 ± 0.03 mN/m and 12.9 ± 0.03 mN/m, respectively.
In the case of `CCCCCC(=O)OC` [methyl hexanoate], in data set [2], the surface tension liquid-gas is given as 26.01 ± 0.26 mN/m and the mass density was determined as 879.76 ± 0.72 kg/m3. Also, the refractive index in data set [3] is given as 1.40443 ± 0.0008.
Take `COC(C)=O` [methyl ethanoate] + O: the interfacial tension in data set [1] (278.15 K) came to 1.86 ± 0.03 mN/m; in data set [1] (288.15 K), 1.77 ± 0.03 mN/m; in data set [1] (298.15 K), 1.66 ± 0.03 mN/m; in data set [1] (308.15 K), 1.49 ± 0.03 mN/m; in data set [1] (318.15 K) it was 1.17 ± 0.03 mN/m; in data set [1] (328.15 K) it was 0.75 ± 0.03 mN/m.
